# Test results as given in patent US11066414B2, “Cot modulators and methods of use thereof” (Gilead Sciences, Inc., priority 2015, dated 2021).
# Like-named read-outs stand apart in the source and are kept apart here.
# Tests used:
# TNFα = test: Cot Monocyte TNFα Cell Based Assay
# Human Cot = Human Cot (Homo sapiens (Human), UniProt P41279); test: High Throughput Cot Biochemical Assay
# [1] = Homo sapiens, Monocyte, read-out: EC50 TNF, LPS-stimulated human monocytes, TNFα
# [2] = IC50 HTRF, Cot HTRF (TR-FRET) biochemical assay
# [3] = read-out: EC50 TNF, LPS-stimulated human monocytes, TNFα TR-FRET
# [4] = read-out: IC50 HTRF, Cot HTRF (TR-FRET KinEASE) biochemical assay, 400 μM ATP
# [5] = read-out: EC50 TNF, LPS-stimulated human monocytes, TNFα
# [6] = read-out: IC50 HTRF, Cot HTRF (TR-FRET) biochemical assay
# [7] = Homo sapiens, Monocyte, read-out: EC50 TNF, LPS-stimulated human monocytes, TNFα TR-FRET
# [8] = IC50 HTRF, Cot HTRF (TR-FRET KinEASE) biochemical assay, 400 μM ATP
# Sequence of Human Cot (P41279 30-397): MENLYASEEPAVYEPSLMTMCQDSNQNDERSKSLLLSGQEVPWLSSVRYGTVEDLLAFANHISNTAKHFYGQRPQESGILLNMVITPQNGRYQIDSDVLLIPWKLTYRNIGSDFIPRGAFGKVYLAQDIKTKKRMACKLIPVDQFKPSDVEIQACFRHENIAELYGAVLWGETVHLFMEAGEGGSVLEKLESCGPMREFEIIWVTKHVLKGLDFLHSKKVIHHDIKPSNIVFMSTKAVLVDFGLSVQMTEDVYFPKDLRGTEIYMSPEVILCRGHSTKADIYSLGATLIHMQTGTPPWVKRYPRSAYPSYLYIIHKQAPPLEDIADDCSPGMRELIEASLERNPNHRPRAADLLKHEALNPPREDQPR
compound,measurement,setting,value
"Cn1ccc2c([C@H](Nc3cc(Cl)c4ncc(C#N)c(NCC(C)(C)C(F)(F)F)c4c3)c3cn(C4(C(F)F)CC4)nn3)cccc2c1=O [Example 724, (S)-8-chloro-6-(((1-(1-(difluoromethyl)cyclopropyl)-1H-1,2,3-triazol-4-yl)(2-methyl-1-oxo-1,2-dihydroisoquinolin-5-yl)methyl)amino)-4-((3,3,3-trifluoro-2,2-dimethylpropyl)amino)quinoline-3-carbonitrile]",EC50,TNFα; [1],44 nM
same,IC50,Human Cot; [2],3 nM
"Cc1nc(F)ccc1[C@H](Nc1cc(Cl)c2ncc(C#N)c(NCC(C)(C)C(F)(F)F)c2c1)c1cn(C23CC(C2)C3)nn1 [Example 719, (S)-6-(((1-(bicyclo[1.1.1]pentan-1-yl)-1H-1,2,3-triazol-4-yl)(6-fluoro-2-methylpyridin-3-yl)methyl)amino)-8-chloro-4-((3,3,3-trifluoro-2,2-dimethylpropyl)amino)quinoline-3-carbonitrile]",EC50,TNFα; [1],24 nM
same,IC50,Human Cot; [2],2 nM
"COc1nccc2c([C@H](Nc3cc(C#N)c4ncc(C#N)c(NCC(C)(C)C(F)(F)F)c4c3)c3cn(C45CC(C4)C5)nn3)cccc12 [Example 820, (S)-6-(((1-(bicyclo[1.1.1]pentan-1-yl)-1H-1,2,3-triazol-4-yl)(1-methoxylsoquinolin-5-yl)methyl)amino)-4-((3,3,3-trifluoro-2,2-dimethylpropyl)amino)quinoline-3,8-dicarbonitrile]",EC50,TNFα; [3],33 nM
same,IC50,Human Cot; [4],3 nM
"Cc1ncccc1[C@H](Nc1cc(Cl)c2ncc(C#N)c(Nc3cnc(F)c(F)c3)c2c1)c1c[nH]nn1 [Example 173, (S)-8-chloro-4-((5,6-difluoropyridin-3-yl)amino)-6-(((2-methylpyridin-3-yl)(1H-1,2,3-triazol-4-yl)methyl)amino)quinoline-3-carbonitrile]",EC50,TNFα; [1],1110 nM
same,IC50,Human Cot; [2],7 nM
"Cn1ccc2c([C@H](Nc3cc(Cl)c4ncc(C#N)c(NCC(C)(C)C)c4c3)c3cn(C4(C)CC4)nn3)cccc2c1=O [Example 776, (S)-8-chloro-6-(((2-methyl-1-oxo-1,2-dihydroisoquinolin-5-yl)(1-(1-methylcyclopropyl)-1H-1,2,3-triazol-4-yl)methyl)amino)-4-(neopentylamino)quinoline-3-carbonitrile]",EC50,TNFα; [1],24 nM
same,IC50,Human Cot; [2],2 nM
"Cn1nccc1[C@H](Nc1cc(C#N)c2ncc(C#N)c(NCC(C)(C)C)c2c1)c1cn(C2(C(F)F)CC2)nn1 [Example 677, (S)-6-(((1-(l-(difluoromethyl)-cyclopropyl)-1H-1,2,3-triazol-4-yl)(1-methyl-1H-pyrazol-5-yl)methyl)amino)-4-(neopentylamino)quinoline-3,8-dicarbonitrile]",EC50,TNFα; [5],133 nM
same,IC50,Human Cot; [6],4 nM
"[2H][C@](Nc1cc(Cl)c2ncc(C#N)c(NCC(C)(C)C)c2c1)(c1ccc(F)nc1)c1cn(CC(=O)NS(C)(=O)=O)nn1 [Example 425, (S)-2-(4-(((8-chloro-3-cyano-4-(neopentylamino)quinolin-6-yl)amino)(6-fluoropyridin-3-yl)methyl-d)-1H-1,2,3-triazol-1-yl)-N-(methyl-sulfonyl)acetamide]",EC50,TNFα; [1],1000 nM
same,IC50,Human Cot; [2],7 nM
"Cc1nc(F)ccc1[C@H](Nc1cc(C#N)c2ncc(C#N)c(NCC(C)(C)C)c2c1)c1cn(C2(CO)CC2)nn1 [Example 610, (S)-6-(((6-fluoro-2-methylpyridin-3-yl)(1-(1-(hydroxymethyl)cyclopropyl)-1H-1,2,3-triazol-4-yl)methyl)amino)-4-(neopentylamino)quinoline-3,8-dicarbonitrile]",EC50,TNFα; [1],199 nM
same,IC50,Human Cot; [2],2 nM
Cn1ncc2c([C@H](Nc3cc(C#N)c4ncc(C#N)c(NCC(C)(C)C)c4c3)c3cn(Cc4c(F)cccc4F)nn3)cccc21 [Example 656],EC50,TNFα; [5],86 nM
same,IC50,Human Cot; [6],4 nM
"Cc1nc(F)ccc1[C@H](Nc1cc(Cl)c2ncc(C#N)c(NCC(C)(C)C(F)(F)F)c2c1)c1nnn(C2(C)CC2)c1F [Example 959, (S)-8-chloro-6-(((5-fluoro-1-(1-methylcyclopropyl)-1H-1,2,3-triazol-4-yl)(6-fluoro-2-methylpyridin-3-yl)methyl)amino)-4-((3,3,3-trifluoro-2,2-dimethylpropyl)amino)quinoline-3-carbonitrile]",EC50,TNFα; [7],41 nM
same,IC50,Human Cot; [8],3 nM
"N#Cc1cnc2c(Cl)cc(N[C@@H](c3cccnc3)c3c[nH]nn3)cc2c1N[C@@H](CCO)c1ccccc1 [Example 178, 8-chloro-4-(((S)-3-hydroxy-1-phenylpropyl)amino)-6-(((S)-pyridin-3-yl(1H-1,2,3-triazol-4-yl)methyl)amino)quinoline-3-carbonitrile]",EC50,TNFα; [1],931 nM
same,IC50,Human Cot; [2],7 nM
"Cn1ccc2c([C@H](Nc3cc(C#N)c4ncc(C#N)c(NCC(C)(C)C(F)(F)F)c4c3)c3cn(C4(C(F)(F)F)CC4)nn3)cccc2c1=O [Example 886, (S)-6-(((2-methyl-1-oxo-1,2-dihydroisoquinolin-5-yl)(1-(1-(trifluoromethyl)-cyclopropyl)-1H-1,2,3-triazol-4-yl)methyl)-amino)-4-((3,3,3-trifluoro-2,2-dimethylpropyl)-amino)quinoline-3,8-dicarbonitrile]",EC50,TNFα; [7],30 nM
same,IC50,Human Cot; [8],3 nM
"Cc1nc(F)ccc1[C@H](Nc1cc(Cl)c2ncc(C#N)c(NCC(C)(C)C)c2c1)c1cn(C2(CF)CC2)nn1 [Example 495, (S)-8-chloro-6-(((6-fluoro-2-methylpyridin-3-yl)(1-(1-(fluoromethyl)cyclopropyl)-1H-1,2,3-triazol-4-yl)methyl)amino)-4-(neopentylamino)quinoline-3-carbonitrile]",EC50,TNFα; [1],50 nM
same,IC50,Human Cot; [2],3 nM
"CC(C)(C)ONc1c(C#N)cnc2c(C#N)cc(N[C@H](c3cn(C4CC4)nn3)c3cccc4ncsc34)cc12 [Example 456, (S)-6-((benzo[d]thiazol-7-yl(1-cyclopropyl-1H-1,2,3-triazol-4-yl)methyl)amino)-4-(tert-butoxyamino)quinoline-3,8-dicarbonitrile]",EC50,TNFα; [1],1000 nM
same,IC50,Human Cot; [2],51 nM
"N#Cc1cnc2c(Cl)cc(N[C@@H](c3cccnc3)c3c[nH]nn3)cc2c1Nc1cnc(F)c(F)c1 [Example 207, (S)-8-chloro-4-((5,6-difluoropyridin-3-yl)amino)-6-((pyridin-3-yl(1H-1,2,3-triazol-4-yl)methyl)amino)quinoline-3-carbonitrile]",EC50,TNFα; [1],931 nM
same,IC50,Human Cot; [2],5 nM
"COc1nccc2c([C@H](Nc3cc(Cl)c4ncc(C#N)c(NCC(C)(C)C)c4c3)c3cn(C4CC4)nn3)cccc12 [Example 912, (S)-8-chloro-6-(((1-cyclopropyl-1H-1,2,3-triazol-4-yl)(1-methoxylsoquinolin-5-yl)methyl)amino)-4-(neopentylamino)quinoline-3-carbonitrile]",EC50,TNFα; [3],78 nM
same,IC50,Human Cot; [4],6 nM
"COc1nccc2c([C@H](Nc3cc(Cl)c4ncc(C#N)c(NCC(C)(C)C)c4c3)c3cn(C(CF)CF)nn3)cccc12 [Example 933, (S)-8-chloro-6-(((1-(1,3-difluoropropan-2-yl)-1H-1,2,3-triazol-4-yl)(1-methoxylsoquinolin-5-yl)methyl)amino)-4-(neopentylamino)quinoline-3-carbonitrile]",EC50,TNFα; [3],247 nM
same,IC50,Human Cot; [4],29 nM
"COc1nccc2c([C@H](Nc3cc(C#N)c4ncc(C#N)c(NCC(C)(C)C)c4c3)c3cn([C@@H](C)CF)nn3)cccc12 [Example 824, 6-(((S)-(1-((S)-1-fluoropropan-2-yl)-1H-1,2,3-triazol-4-yl)(1-methoxylsoquinolin-5-yl)methyl)amino)-4-(neopentylamino)quinoline-3,8-dicarbonitrile]",EC50,TNFα; [3],59 nM
same,IC50,Human Cot; [4],5 nM
"COc1cc(N[C@H](c2cn(C3(C#N)CC3)nn2)c2ccc(F)nc2C)cc2c(NCC(C)(C)C)c(C#N)cnc12 [Example 596, (S)-6-(((1-(1-cyanocyclopropyl)-1H-1,2,3-triazol-4-yl)(6-fluoro-2-methylpyridin-3-yl)methyl)amino)-8-methoxy-4-(neopentylamino)quinoline-3-carbonitrile]",EC50,TNFα; [1],826 nM
same,IC50,Human Cot; [2],79 nM
"CCc1ncccc1[C@H](Nc1cc(Cl)c2ncc(C#N)c(NCC(C)(C)C)c2c1)c1cn(C2(C(F)(F)F)CC2)nn1 [Example 600, (S)-8-chloro-6-(((2-ethylpyridin-3-yl)(1-(1-(trifluoromethyl)cyclopropyl)-1H-1,2,3-triazol-4-yl)methyl)amino)-4-(neopentylamino)quinoline-3-carbonitrile]",EC50,TNFα; [1],113 nM
same,IC50,Human Cot; [2],5 nM
"CC(C)(C)CNc1c(C#N)cnc2c(Cl)cc(N[C@H](c3cn(C4CC4)nn3)c3cccc4cnccc34)cc12 [Example 443, (S)-8-chloro-6-(((1-cyclopropyl-1H-1,2,3-triazol-4-yl)(isoquinolin-5-yl)methyl)amino)-4-(neopentylamino)quinoline-3-carbonitrile]",EC50,TNFα; [1],19 nM
same,IC50,Human Cot; [2],1 nM
"CC(C)(C)CNc1c(C#N)cnc2c(Cl)cc(N[C@H](c3cn(C4CC4)nn3)c3cccc4ncsc34)cc12 [Example 418, (S)-6-((benzo[d]thiazol-7-yl(1-cyclopropyl-1H-1,2,3-triazol-4-yl)methyl)amino)-8-chloro-4-(neopentylamino)quinoline-3-carbonitrile]",EC50,TNFα; [1],45 nM
same,IC50,Human Cot; [2],2 nM
"Cc1nc(F)ccc1[C@H](Nc1cc(Cl)c2ncc(C#N)c(NCC(C)(C)C)c2c1Br)c1nnn(C2(C(F)F)CC2)c1F [Example 975, (S)-5-bromo-8-chloro-6-(((1-(1-(difluoromethyl)cyclopropyl)-5-fluoro-1H-1,2,3-triazol-4-yl)(6-fluoro-2-methylpyridin-3-yl)methyl)amino)-4-(neopentylamino)quinoline-3-carbonitrile]",EC50,TNFα; [7],1000 nM
same,IC50,Human Cot; [8],1230 nM
